# Laboratory results published in patent US8153400B1, “Nucleic acids encoding a mutT domain-containing polypeptide” (Beth Israel Deaconess Medical Center, Inc., priority 1999, dated 2012).
# “Also recorded” adds a separate entry of the source.
# Assays:
# TrpC7 = molecular target: T1, TrpC7 (Homo sapiens, UniProt O94759, Q1189R); assay: Whole-cell patch-clamp of membrane currents in tetracycline-inducible HEK293 cells expressing FLAG-TrpC7; assay type: cell-based; settings: for gating of TrpC7 / induced plasma membrane currents: 100 μM in patch pipette, currents at -80 mV; for gating of TrpC7 / induced plasma membrane currents / gating of TrpC7: after tetracycline induction
# T1 construct: expressed in transfected cells; host or cells: HEK293 cells expressing the tetracycline repressor (pcDNA6/TR); construct in pcDNA4/TO
# T1 sequence (O94759 3-1503 Q1189R): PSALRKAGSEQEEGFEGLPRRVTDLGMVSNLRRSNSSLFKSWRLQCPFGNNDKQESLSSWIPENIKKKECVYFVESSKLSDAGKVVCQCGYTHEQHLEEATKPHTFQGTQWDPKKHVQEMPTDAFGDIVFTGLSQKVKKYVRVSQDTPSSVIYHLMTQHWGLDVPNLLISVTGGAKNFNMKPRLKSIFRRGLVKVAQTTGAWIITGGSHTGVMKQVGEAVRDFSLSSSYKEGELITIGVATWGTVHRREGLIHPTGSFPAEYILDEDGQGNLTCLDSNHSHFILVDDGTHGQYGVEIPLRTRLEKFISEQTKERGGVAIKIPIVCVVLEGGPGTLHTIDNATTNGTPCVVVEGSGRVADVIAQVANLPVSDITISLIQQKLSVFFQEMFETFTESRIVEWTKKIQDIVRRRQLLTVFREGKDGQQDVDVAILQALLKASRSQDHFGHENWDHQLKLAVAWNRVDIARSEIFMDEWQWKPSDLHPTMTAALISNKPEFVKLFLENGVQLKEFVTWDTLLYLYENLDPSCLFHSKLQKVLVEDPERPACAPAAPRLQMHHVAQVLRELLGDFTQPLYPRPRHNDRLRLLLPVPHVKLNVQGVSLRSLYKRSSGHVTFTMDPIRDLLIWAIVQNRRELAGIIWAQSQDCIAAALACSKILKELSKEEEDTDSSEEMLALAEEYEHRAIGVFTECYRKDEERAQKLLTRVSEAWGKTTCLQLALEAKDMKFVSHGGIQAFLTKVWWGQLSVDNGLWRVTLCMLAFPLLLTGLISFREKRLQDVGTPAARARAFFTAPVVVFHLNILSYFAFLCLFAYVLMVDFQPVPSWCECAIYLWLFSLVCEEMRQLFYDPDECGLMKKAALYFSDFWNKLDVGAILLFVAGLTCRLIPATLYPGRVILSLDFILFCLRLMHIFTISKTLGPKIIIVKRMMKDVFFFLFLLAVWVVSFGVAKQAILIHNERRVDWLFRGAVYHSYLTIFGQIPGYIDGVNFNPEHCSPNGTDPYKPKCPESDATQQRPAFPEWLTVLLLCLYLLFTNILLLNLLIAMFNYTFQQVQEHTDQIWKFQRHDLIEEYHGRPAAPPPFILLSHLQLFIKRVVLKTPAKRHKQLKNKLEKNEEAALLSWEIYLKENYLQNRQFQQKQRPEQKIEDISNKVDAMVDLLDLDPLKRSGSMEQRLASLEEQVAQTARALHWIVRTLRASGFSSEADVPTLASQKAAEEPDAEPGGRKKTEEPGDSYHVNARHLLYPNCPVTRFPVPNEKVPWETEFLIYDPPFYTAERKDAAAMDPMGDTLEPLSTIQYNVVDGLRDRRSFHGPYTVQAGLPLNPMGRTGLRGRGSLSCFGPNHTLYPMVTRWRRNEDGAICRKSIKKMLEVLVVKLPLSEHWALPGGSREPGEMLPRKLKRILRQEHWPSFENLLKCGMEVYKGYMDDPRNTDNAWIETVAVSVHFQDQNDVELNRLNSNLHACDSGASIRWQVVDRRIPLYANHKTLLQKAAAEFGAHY
# Experimental: Wild type and tetracycline-inducible HEK293 FLAG-TrpC7 expressing cells were cultured at 37° C./5% CO2 in DMEM supplemented with 10% FBS and 2 mM glutamine. The medium was supplemented with blasticidin (5 μg/ml; Invitrogen) and zeocin (0.4 mg/ml; Invitrogen). Cells were resuspended in media containing 1 μg/ml tetracycline (Invitrogen) 24 hours before patch-clamp experiments.
# For patch-clamp experiments, coverslips were transferred to the recording chamber and kept in a standard modified Ringer's solution of the following composition (in mM): NaCl 145, KCl 2.8, CaCl2 1, MgCl2 2, glucose 10, Hepes-NaOH 10, pH 7.2. Intracellular pipette-filling solutions contained (in mM): Cs-glutamate 145, NaCl 8, MgCl2 1, Cs-BAPTA 10, pH 7.2 adjusted with CsOH. […] The agonists were dissolved in the standard intracellular solution. Ionomycin (Sigma) was added to the extracellular standard solution.
# Patch-clamp experiments were performed in the tight-seal whole-cell configuration at 21-25° C. High-resolution current recordings were acquired by a computer-based patch-clamp amplifier system (EPC-9, HEKA, Lambrecht, Germany). […] Immediately following establishment of the whole-cell configuration, voltage ramps of 50 ms duration spanning the voltage range of −100 to +100 mV were delivered from a holding potential of 0 mV at a rate of 0.5 Hz over a period of 200 to 400 seconds. All voltages were corrected for a liquid junction potential of 10 mV between external and internal solutions. Currents were filtered at 2.9 kHz and digitized at 100 μs intervals. Capacitive currents and series resistance were determined and corrected before each voltage ramp using the automatic capacitance compensation of the EPC-9. For analysis, the very first ramps were digitally filtered at 2 kHz, pooled and used for leak-subtraction of all subsequent current records. The low-resolution temporal development of currents at a given potential was extracted from the leak-corrected individual ramp current records by measuring the current amplitudes at voltages of −80 mV or +80 mV.
# [1] = test system: non-selective plasma membrane ion channel in ascidian oocytes; settings: cited from earlier work
# NUDT9 (mutTCCH-1) = molecular target: T2, NUDT9 (mutTCCH-1) (Homo sapiens, UniProt Q9BW91); assay: Nudix type enzyme assay, substrate screen with recombinant NUDT9; assay type: biochemical; settings: panel of nucleoside diphosphate derivatives; products AMP and ribose-5-phosphate
# T2 construct: made in house; host or cells: E. coli BL21 (DE3), pET-24d
# T2 sequence (Q9BW91 47-350): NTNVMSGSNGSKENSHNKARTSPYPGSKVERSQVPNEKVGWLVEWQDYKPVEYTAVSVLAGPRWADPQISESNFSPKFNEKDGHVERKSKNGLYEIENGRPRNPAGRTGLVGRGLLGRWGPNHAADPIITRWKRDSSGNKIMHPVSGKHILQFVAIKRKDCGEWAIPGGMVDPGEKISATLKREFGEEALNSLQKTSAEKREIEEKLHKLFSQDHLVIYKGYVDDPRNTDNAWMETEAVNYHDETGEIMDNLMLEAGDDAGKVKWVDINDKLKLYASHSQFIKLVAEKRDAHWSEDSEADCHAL
# Experimental: (§1) BL21 (DE3) cells containing the respective expression plasmids were grown at 37° C. in LB broth on a shaker to an A600 of about 0.6 and induced by the addition of isopropyl-β-D-thiogalactopyranoside to a concentration of 1 mM. The cells were allowed to grow for an additional 4 h, harvested, washed by suspension in isotonic saline, centrifuged in pre-weighed centrifuge tubes, and the packed cells were stored at −80° C. […] In the case of NUDT9, enzyme was extracted in the freeze-thaw fraction and ammonium sulfate was added to 35% final concentration. The precipitate was discarded after centrifugation and ammonium sulfate was added to the supernatant to a final concentration of 50%. The precipitate was collected by centrifugation, dissolved then chromatographed, then chromatographed on a gel filtration column (Sephadex G-100). […]
# (§2) Enzyme Assay—Enzyme velocities were quantified by measuring the conversion of a phosphatase-insensitive substrate, ADP-ribose, to the phosphatase-sensitive products, AMP and ribose-5-phosphate. The liberated inorganic orthophosphate was measured by the procedure of Ames and Dubin (Ames, B. N., and Dubin, D. T., J. Biol. Chem. 1960, 235:769-775). […] After 30 min at 37° C., the reaction was terminated by the addition of EDTA and inorganic orthophosphate was measured.
# (§3) Km and Vmax were calculated by non-linear regression analysis of Lineweaver-Burke plots.
# [2] = molecular target: T3, TrpC7 NUDT9 homology region (Homo sapiens, UniProt O94759); assay: Nudix type enzyme assay (ADP-ribose hydrolysis, liberated orthophosphate), TrpC7 NUDT9 homology region; assay type: biochemical; settings: ADP-ribose as substrate
# T3 construct: an NcoI site, an artificial start codon, amino acids 1197-1503, a stop codon, and a 3′ NotI site; Met from artificial start codon (N); made in house; host or cells: E. coli BL21 (DE3), pET-24d
# T3 sequence (O94759 1197-1503): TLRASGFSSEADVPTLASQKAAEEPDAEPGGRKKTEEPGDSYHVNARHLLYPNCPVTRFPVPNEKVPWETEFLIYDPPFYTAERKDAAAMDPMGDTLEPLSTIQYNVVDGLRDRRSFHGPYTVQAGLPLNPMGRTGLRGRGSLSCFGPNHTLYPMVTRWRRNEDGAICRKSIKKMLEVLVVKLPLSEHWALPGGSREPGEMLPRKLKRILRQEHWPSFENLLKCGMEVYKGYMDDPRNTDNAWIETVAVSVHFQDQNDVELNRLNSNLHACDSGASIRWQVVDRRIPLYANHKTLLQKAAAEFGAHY
# Experimental: as §1, §2, §3
# [3] = intracellular perfusion, current magnitude and latency
smiles,measurement,setting,value
Nc1ncnc2c1ncn2[C@@H]1O[C@H](COP(=O)(O)OP(=O)(O)O[C@H]2O[C@H](CO)[C@@H](O)[C@H](O)[C@H]2O)[C@@H](O)[C@H]1O [ADP-glucose],gating of TrpC7 / induced plasma membrane currents,TrpC7,no detectable gating
Nc1ncnc2c1ncn2[C@@H]1O[C@H](COP(=O)(O)OP(=O)(O)O[C@H]2O[C@H](CO)[C@@H](O)[C@H](O)[C@@H]2O)[C@@H](O)[C@H]1O [ADP-mannose],gating of TrpC7 / induced plasma membrane currents,TrpC7,no detectable gating
"Nc1ncnc2c1ncn2[C@@H]1O[C@H](COP(=O)(O)OP(=O)(O)OC[C@H]2OC(O)[C@H](O)[C@@H]2O)[C@@H](O)[C@H]1O (some centres unmarked) [ADP-ribose, Adenosine 5-diphospho (ADP)-ribose]",concentration that gates the currents,[1],≥ 10 nM
same,substrate specificity of recombinant NUDT9,NUDT9 (mutTCCH-1),highly specific ADP-ribose pyrophosphatase
same,activity relative to that observed for NUDT9,[2],approximately 1%
same,Vmax (specific activity),[2]; E. coli expressed protein,0.1 μmol/min/mg protein
same,gating of TrpC7 / induced plasma membrane currents,TrpC7,extremely large currents are induced; also recorded: large inward currents
same,currents induced by intracellular perfusion,"TrpC7; 300 μM, tetracycline-induced cells, -80 mV and +80 mV",almost linear cationic currents with slight outward rectification
same,concentration at which TrpC7 activation begins to occur,TrpC7; [3],60-100 μLM
same,concentration at which TrpC7 activation saturates,TrpC7; [3],around 300 μM
same,Kd,"TrpC7; peak current amplitudes at -80 mV, 10 μM to 1 mM, read-out: apparent KD of dose-response curve for gating of TrpC7",90 µM
same,effect on plasma membrane currents,TrpC7; without tetracycline induction (no FLAG-TrpC7 expression),no detectable effect
"Nc1nc2c(ncn2[C@@H]2O[C@H](COP(=O)(O)OP(=O)(O)O[C@H]3O[C@H](CO)[C@@H](O)[C@H](O)[C@H]3O)[C@@H](O)[C@H]2O)c(=O)[nH]1 [GDP-glucose, guanosine 5-diphospho (GDP)-glucose]",gating of TrpC7 / induced plasma membrane currents,TrpC7,no detectable gating
Nc1nc2c(ncn2[C@@H]2O[C@H](COP(=O)(O)OP(=O)(O)O[C@H]3O[C@H](CO)[C@@H](O)[C@H](O)[C@@H]3O)[C@@H](O)[C@H]2O)c(=O)[nH]1 [GDP-mannose],gating of TrpC7 / induced plasma membrane currents,TrpC7,no detectable gating
"N=c1c2ncn3c2ncn1[C@@H]1O[C@H](COP(=O)(O)OP(=O)(O)OC[C@H]2O[C@@H]3[C@H](O)[C@@H]2O)[C@@H](O)[C@H]1O [cyclic ADP-ribose, cyclic ADP-Ribose]",gating of TrpC7 / induced plasma membrane currents,TrpC7,no detectable gating
"O=P(O)(O)O[C@@H]1[C@H](O)[C@H](O)[C@@H](OP(=O)(O)O)[C@H](OP(=O)(O)O)[C@H]1O [inositol-1,4,5-trisphosphate, inositol 1,4,5-trisphosphate]",gating of TrpC7,TrpC7; 20 μM in patch pipette,no detectable gating
"C[C@H](CCC(=O)O)C[C@H](C)C[C@H](C)C(=O)/C=C(\O)[C@H](C)C[C@H](C)C/C=C/[C@@H](C)[C@@H](O)[C@@H](C)[C@@H](O)C[C@@H]1CC[C@@](C)([C@H]2CC[C@@](C)([C@@H](C)O)O2)O1 [ionomycin, Ionomycin]",gating of TrpC7,"TrpC7; 10 μM, added to the extracellular solution",no detectable gating
